Test results: patent publication US6797721B2, “Phorboxazole derivatives for treating cancer” (Parker Hughes Institute, priority 1999, dated 2004)

Experiments:
[1] = tested on: U373 human glioblastoma cells; assay: Clonogenic assay, U373; type: cell-based; conditions: 7 days; for inhibition at 0.01 µM / inhibition at 0.1 µM: Homo sapiens, U373 MG, 168 h, read-out: Inhibition of clonogenic growth
Experimental: (§1) The growth-inhibiting activity of the synthetic Phorboxazole A and the synthesized derivatives was tested in clonogenic assays. Cancer cells were treated with 1 nM, 10 nM, and 100 nM doses of synthetic Phorboxazole A or derivatives of phorboxazole A. Treated cells included U373 human glioblastoma cells, NALM-6, human B-lineage acute lymphoblastic leukemia cells, and BT-20 human breast cancer cells. The cancer cells were resuspended in clonogenic medium consisting of alpha-MEM supplemented with 0.9% methylcellulose, 30% fetal bovine serum, and 50 μM 2-mercaptoethanol. Cells were plated in duplicate Petri dishes at 100,000 cells/mL/dish and cultured in a humidified 5% CO2 incubator for 7 days. Cancer cell colonies were enumerated on a grid using an inverted phase microscope of high optical resolution. Results were expressed as % inhibition of clonogenic cells at a particular concentration of the test agent using the formula:
(§2) % Inhibition=(1−Mean # of colonies [Test]/Mean # of colonies [Control]×100.

leukemia NALM-6 cells = assay: Mitochondrial transmembrane potential assay (DiIC1(5) staining); type: cell-based, human; conditions: 2.5 nM, 5 nM or 10 nM, 72 hours
Experimental: FIG. 2 are graphs showing the effect of synthetic phorboxazole A and phorboxazole A derivatives on the mitochondrial transmembrane potentials of leukemia NALM-6 cells.
Cells were incubated with 2.5 nM, 5 nM or 10 nM of phorboxazole A, 33-O-methyl-phorboxazole A or 45,46-dehydrobromo-phorboxazole A for 72 hours, stained with DiICl (5) to assess the mitochondrial membrane potential (Δψm) and then analyzed with a cell sorter equipped with a HeNe laser.

[2] = tested on: U373 human glioblastoma cells; assay: MTT cytotoxicity assay, U373; type: cell-based; conditions: U373 MG, U373 (brain tumor, glioblastoma), 24-36 hours, read-out: IC50 [MTT]
Experimental: (§3) The cytotoxicity assay of synthetic Phorboxazole A and various derivative compounds against human tumor cells was performed using the MTT (3-[4,5-dimethylthiazol-2-yl]-2,5-diphenyl tetrazolium bromide) assay (Boehringer Mannheim Corp., Indianapolis, Ind.). Briefly, exponentially growing brain tumor cells were seeded into a 96-well plate at a density of 2.5×10^4 cells/well and incubated for 36 hours at 37° C. prior to drug exposure. On the day of treatment, culture medium was carefully aspirated from the wells and replaced with fresh medium containing the various phorboxazole A derivative compounds as well as the tyrosine kinase inhibitory isoflavone genistein (GEN) at concentrations ranging from 0.1 to 250 μM. Triplicate wells were used for each treatment.
(§4) Human glioblastoma cells U373 (brain cancer), human B-lineage acute lymphoblastic leukemia cells NALM-6, and human breast cancer cells BT-20 were obtained from American Type Culture Collection (Rockville, Md.) and maintained as a continuous cell line in Dulbecco's modified Eagles's medium supplemented with 10% fetal bovine serum and antibiotics.
(§5) The cells were incubated with the various compounds for 24-36 hours at 37° C. in a humidified 5% CO2 atmosphere. To each well, 10 μl of MTT (0.5 mg/ml final concentration) was added and the plates were incubated at 37° C. for 4 hours to allow MTT to form formazan crystals by reacting with metabolically active cells. The fonnazan crystals were solubilized overnight at 37° C. in a solution containing 10% SDS in 0.01 M HCl. The absorbance of each well was measured in a microplate reader (Labsystems) at 540 nm and a reference wavelength of 690 nm. To translate the OD540 values into the number of live cells in each well, the OD540 values were compared to those on standard OD540-versus-cell number curves generated for each cell line. The percent survival was calculated using the formula: [formula]
(§6) The IC50 values were calculated by non-linear regression analysis.

[3] = tested on: BT-20 human breast cancer cells; assay: Clonogenic assay, BT-20; type: cell-based; conditions: 7 days; for inhibition at 0.001 µM / inhibition at 0.01 µM / inhibition at 0.1 µM: Homo sapiens, 168 h, read-out: Inhibition of clonogenic growth
Experimental: as §1, §2

[4] = tested on: NALM-6 B-lineage ALL cells; assay: Clonogenic assay, NALM-6; type: cell-based, human; conditions: 7 days; for inhibition at 0.001 µM / inhibition at 0.01 µM / inhibition at 0.1 µM: Homo sapiens, 168 h, read-out: Inhibition of clonogenic growth
Experimental: as §1, §2

[5] = tested on: NALM-6 human B-lineage acute lymphoblastic leukemia cells; assay: MTT cytotoxicity assay, NALM-6; type: cell-based; conditions: NALM-6 (leukemia, ALL), 24-36 hours, read-out: IC50 [MTT]
Experimental: as §3, §4, §5, §6

[6] = tested on: BT-20 human breast cancer cells; assay: MTT cytotoxicity assay, BT-20; type: cell-based; conditions: BT-20 (breast cancer), 24-36 hours, read-out: IC50 [MTT]
Experimental: as §3, §4, §5, §6

[7] = tested on: human breast cancer cell line BT-20; assay: In situ detection of apoptosis (nick-end-labeling, confocal microscopy); type: cell-based; conditions: final concentration of 100 μM, 24 hours
Experimental: The synthetic Phorboxazole A and the synthetic analogs were also assayed for apoptosis-inducing activity. Assay for apoptosis was performed by the in situ nick-end-labeling method using an ApopTag in situ detection kit (Oncor, Gaithersburg, Md.) according to the manufacturer's reconmmendations. Immunofluorescence was used to examine the morphologic features of human breast cancer cell line BT-20 (American Type Culture Collection Rockville, Md.) treated with the novel phorboxazole A derivatives of the present invention.
Cells were trypsinized from rapidly growing tissue culture flasks and seeded onto sterile 22 mm^2 coverslips in 6-well culture plates. Cells on coverslips were returned to the incubator for 24 hours prior to treatment. The phorboxazole A derivatives were added to the cells from a stock solution made in DMSO to a final concentration of 100 μM. Final DMSO concentration were kept at 0.1% in both test samples and controls. Cells were returned to a 37° C. incubation for 24 hours before further processing. At 24 hours, coverslips were fixed in −20° C. methanol for 15 minutes followed by a 15 minute incubation in phosphate buffered saline +0.1% Triton X-100 (PBS-Tx). Coverslips were then incubated with a monoclonal antibody against α-tubulin (Sigma Chemical Co., St. Louis, Mo.) at a dilution of 1:1000 for 40 minutes in a humidified chamber at 37° C. Coverslips were washed for 15 minutes in PBS-Tx followed by a 40 minute incubation with goat anti-mouse IgG antibody conjugated to FITC (Amersham Corp., Arlington Heights, Ill.). The coverslips were again rinsed in PBS-Tx and incubated with 5 μM TOTO-3 (Molecular Probes, Eugene, Oreg.) for 20 minutes to label the nuclear DNA. Coverslips were immediately inverted onto slides in Vectashield (Vector Labs, Burlingame) to prevent photobleaching, sealed with nail varnish and stored at 4° C.
Slides were examined using a Bio-Rad MRC-1024 Laser Scanning Confocal Microscope mounted on a Nikon Eclipse E800 upright microscope with high numerical aperture objectives. […]

[8] = tested on: U373 glioblastoma spheroids; assay: Cell migration from glioblastoma spheroids; type: cell-based, human; conditions: U373 spheroids on fibronectin-coated coverslips; 48 hours; varied concentrations
Experimental: U373 glioblastoma spheroids of 200 to 400 micrometers in diameter were treated with synthetic Phorboxazole A, 33-O-Methyl-phorboxazole A, and 45,46-dehydrobromo-phorboxazole A in 0.1% DMSO at varied concentrations. Cells were incubated with the inhibitor or with control DMSO in the absence of inhibitor compound for two hours, and then transferred to fibronectin-coated coverslips. The spheroids were then incubated in DMEM containing […] at 37° C. for 48 hours.
In addition, multi-cellular U373 glioblastoma spheroids of 200-400 μm diameter were incubated with 500 nM, 250 nM, 125 nM, 62.5 nM and […] phorboxazoleA, 29-phorboxamide A, 18-methyl phorboxylate and 31-methyl phorboxylate in 0.1% DMSO or 0.1% DMSO alone for 2 hours and transferred to fibronectin-coated coverslips. The spheroids were then incubated in MEM containing respective compounds and cultured for 48 hours at 37° C. At the end of incubation, the spheroids were fixed and stained with Hema-3 solutions. The distance of migrated cells from spheroids was measured using a mircoscope and micrometer.

Structure (SMILES)	Mean Number Colonies/10^4 cells ([1]; 10 nM)	Mean Number Colonies/10^4 cells ([1]; 100 nM)	inhibition at 0.01 µM ([1]; 10 nM) [%]	inhibition at 0.1 µM ([1]; 100 nM) [%]	Depolarized mitochondria (mitochondrial membrane potential) (leukemia NALM-6 cells)	IC50 [2] [nM]	Mean Number Colonies/10^4 cells ([3]; 1 nM)	Mean Number Colonies/10^4 cells ([3]; 10 nM)	Mean Number Colonies/10^4 cells ([3]; 100 nM)	inhibition at 0.001 µM ([3]; 1 nM) [%]	inhibition at 0.01 µM ([3]; 10 nM) [%]	inhibition at 0.1 µM ([3]; 100 nM) [%]	Mean Number Colonies/10^4 cells ([4]; 1 nM)	Mean Number Colonies/10^4 cells ([4]; 10 nM)	Mean Number Colonies/10^4 cells ([4]; 100 nM)	inhibition at 0.001 µM ([4]; 1 nM) [%]	inhibition at 0.01 µM ([4]; 10 nM) [%]	inhibition at 0.1 µM ([4]; 100 nM) [%]	IC50 [5] [nM]	IC50 [6] [nM]	other results
C#CC[C@H](/C=C/C(C)=C/[C@@H](O)[C@H]1C[C@@H](OC)C[C@@](O)(Cc2nc(/C=C(\C)[C@@H]3O[C@@H]4C/C=C/c5nc(co5)[C@H]5C[C@H](O)C[C@@H](C[C@H]6CC(=C)C[C@H](C/C=C\C(=O)O[C@@H]([C@H]4C)[C@H]3C)O6)O5)co2)O1)OC [Compound 8, 45,46-Dehydrobromo-Phorboxazole A]	586	144	10.7	78.1	progressive increase in depolarized mitochondria	27.4	1540	1062	0	0	30.3	> 99.9	2116	293	0	0	85.7	> 99.9	4.8	12.6	Apoptosis-inducing activity [7]: apoptotic activity; Inhibition of cell migration from the spheroid [8]: significantly inhibited cell migration
C=C1C[C@@H]2C[C@@H]3C[C@@H](O)C[C@@H](O3)c3coc(n3)/C=C/C[C@H]3O[C@@H](/C(C)=C/c4coc(C[C@]5(OC)C[C@H](OC)C[C@H]([C@H](O)/C=C(C)/C=C/[C@@H](C/C=C/Br)OC)O5)n4)[C@H](C)[C@@H](OC(=O)/C=C\C[C@@H](C1)O2)[C@H]3C [Compound 9, 33-O-methyl-Phorboxazole A]	578	0	11.9	> 99.8	progressive increase in depolarized mitochondria	29.2	1824	1430	0	0	6.2	> 99.9	1760	422	0	14	79.4	> 99.9	5.2	11.3	Apoptosis-inducing activity [7]: apoptotic activity; Inhibition of cell migration from the spheroid [8]: significantly inhibited cell migration
